Results as given in patent US20250195551A1 (L4 BIO LLC, priority 2023, published 2025).

Key:
[1] = Excipient compatibility study; type: physicochemical; conditions: for Total Impurities % (excluding API impurities %) / Chromatographic purity by HPLC (Assay): 40° C./75% RH
Method: An excipient compatibility study was initiated with selected excipients ranging from oils to surfactants based on equilibrium solubility results (Table 2). […] After solutions were prepared using a hand-held homogenizer (Model IKAT10 Ultra-Turrax), each excipient sample was aliquoted in amber vials, approximately 10% water was added in each excipient aliquot, and bench scale gel stripe OET-004037 was also made and added in a separate set of aliquot samples at approximately 1:1 w/w.
All samples were stored at 40° C./75% relative humidity (RH) condition (Model: Lunaire environmental chamber) and tested by developmental reversed phase HPLC method for Assay/Related Substances at T=0, 2 weeks, and 1 month.

[2] = Pharmacokinetic profiles of Ivermectin B1a in Sprague Dawley rat plasma after IV and oral administration; type: in vivo, Sprague Dawley rats; conditions: Ivermectin B1a in SD rat plasma; single IV 2 mg/kg; fasting; male
Method: Thirty-six male Sprague Dawley rats were randomly assigned into four groups, with nine male rats in each group. All animals in all groups are fasted overnight prior to the experimental date.
Blood samples were collected from 6 of 9 animals per group at 0.5, 1, 2, 3, 4, 6, 8, 24, 72, 120, 168 hours post-dose.

[3] = biological target: 7-aminobutyric acid A (GABAA) receptor; conditions: interaction with GABAA receptor in humans; cited from earlier work
glycine receptor (GlyR) = conditions: interaction with glycine receptor (GlyR) in humans; cited from earlier work
[4] = biological target: neuronal alpha-7-nicotinic receptor (Homo sapiens, UniProt P36544); conditions: interaction with neuronal alpha-7-nicotinic receptor in humans; cited from earlier work
[5] = Solubility determination of ivermectin in excipients
Method: The solubility assessments were performed by continually adding a known amount of the API into each individual excipient and letting the excipient reach solubility equilibrium via API saturation (visible solid observed). The experiments were conducted at ambient conditions (25° C.) and were left to mix on a stir plate at 500 RPM for at least 72 hours.

[6] = in PEG 400, Sample: Control, T = 2 weeks
[7] = in PEG 400, Sample: Gel Stripe (1:1 w/w), T = 2 weeks
[8] = in Tween 80, Sample: 10% water, T = 1 months
[9] = in Tween 80, Sample: 10% water, T = 2 weeks
[10] = in Tween 80, Sample: Control, T = 0
[11] = in Tween 80, Sample: Control, T = 1 months
[12] = in Tween 80, Sample: Control, T = 2 weeks
[13] = in Tween 80, Sample: Gel Stripe (1:1 w/w), T = 1 months
[14] = in Tween 80, Sample: Gel Stripe (1:1 w/w), T = 2 weeks
[15] = in Vitamin E TPGS, Sample: 10% water, T = 1 months
[16] = in Vitamin E TPGS, Sample: 10% water, T = 2 weeks
[17] = in Vitamin E TPGS, Sample: Control, T = 0
[18] = in Vitamin E TPGS, Sample: Control, T = 1 months
[19] = in Vitamin E TPGS, Sample: Control, T = 2 weeks
[20] = in Vitamin E TPGS, Sample: Gel Stripe (1:1 w/w), T = 1 months
[21] = in Vitamin E TPGS, Sample: Gel Stripe (1:1 w/w), T = 2 weeks

Sequence of neuronal alpha-7-nicotinic receptor (P36544 23-502): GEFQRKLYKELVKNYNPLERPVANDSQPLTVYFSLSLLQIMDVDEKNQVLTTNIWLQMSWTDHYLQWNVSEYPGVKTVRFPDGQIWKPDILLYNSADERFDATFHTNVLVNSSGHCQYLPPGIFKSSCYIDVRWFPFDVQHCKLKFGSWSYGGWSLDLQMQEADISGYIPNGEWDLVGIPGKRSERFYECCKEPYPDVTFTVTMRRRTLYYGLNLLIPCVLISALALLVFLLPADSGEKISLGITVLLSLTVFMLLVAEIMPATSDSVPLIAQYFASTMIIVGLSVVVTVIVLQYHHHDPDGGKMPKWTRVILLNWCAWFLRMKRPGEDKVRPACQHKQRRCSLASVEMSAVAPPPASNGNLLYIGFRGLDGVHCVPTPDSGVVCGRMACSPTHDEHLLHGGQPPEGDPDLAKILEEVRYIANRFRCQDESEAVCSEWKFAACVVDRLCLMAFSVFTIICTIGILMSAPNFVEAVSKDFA

ivermectin
Total Impurities % (excluding API impurities %) ([1]; in PEG 400, Sample: Control, T = 0): 0.10 % adjusted area | Chromatographic purity by HPLC (Assay) [1, 6]: 89.36 % area | Total Impurities % (excluding API impurities %) [1, 6]: 8.54 % adjusted area | Chromatographic purity by HPLC (Assay) [1, 7]: 96.92 % area | Total Impurities % (excluding API impurities %) [1, 7]: 0.50 % adjusted area | Chromatographic purity by HPLC (Assay) [1, 8]: 91.18 % area | Total Impurities % (excluding API impurities %) [1, 8]: 6.94 % adjusted area | Chromatographic purity by HPLC (Assay) [1, 9]: 93.02 % area | Total Impurities % (excluding API impurities %) [1, 9]: 3.53 % adjusted area | Chromatographic purity by HPLC (Assay) [1, 10]: 97.53 % area | Total Impurities % (excluding API impurities %) [1, 10]: 0.16 % adjusted area | Chromatographic purity by HPLC (Assay) [1, 11]: 88.45 % area | Total Impurities % (excluding API impurities %) [1, 11]: 10.55 % adjusted area | Chromatographic purity by HPLC (Assay) [1, 12]: 91.87 % area | Total Impurities % (excluding API impurities %) [1, 12]: 4.86 % adjusted area | Chromatographic purity by HPLC (Assay) [1, 13]: 93.51 % area | Total Impurities % (excluding API impurities %) [1, 13]: 4.22 % adjusted area | Chromatographic purity by HPLC (Assay) [1, 14]: 93.97 % area | Total Impurities % (excluding API impurities %) [1, 14]: 2.43 % adjusted area | Chromatographic purity by HPLC (Assay) [1, 15]: 97.46 % area | Total Impurities % (excluding API impurities %) [1, 15]: <LOQ | Chromatographic purity by HPLC (Assay) [1, 16]: 96.99 % area | Total Impurities % (excluding API impurities %) [1, 16]: 0.42 % adjusted area | Chromatographic purity by HPLC (Assay) [1, 17]: 97.74 % area | Total Impurities % (excluding API impurities %) [1, 17]: <LOQ | Chromatographic purity by HPLC (Assay) [1, 18]: 97.37 % area | Total Impurities % (excluding API impurities %) [1, 18]: 0.11 % adjusted area | Chromatographic purity by HPLC (Assay) [1, 19]: 97.43 % area | Total Impurities % (excluding API impurities %) [1, 19]: <LOQ | Chromatographic purity by HPLC (Assay) [1, 20]: 97.74 % area | Total Impurities % (excluding API impurities %) [1, 20]: <LOQ | Chromatographic purity by HPLC (Assay) [1, 21]: 97.50 % area | Total Impurities % (excluding API impurities %) [1, 21]: <LOQ | Chemical compatibility with the API ([1]; oily vehicles including Maisine CC, fractionated coconut oil, and oleic acid): good chemical compatibility | AUC(0-t) [2]: 8259.31 ± 1032.95 ng·h/mL | AUC(0-∞) [2]: 8273.53 ng·h/mL | Cmax [2]: 1722.67 ng/mL | MRT(0-t) [2]: 10.58 h | MRT(0-∞) [2]: 10.81 h | T1/2 [2]: 14.82 ± 0.72 h | Tmax [2]: 0.50 h | EC50 [3]: ~920 nM | EC50 (glycine receptor (GlyR)): ~1200 nM | EC50 [4]: ~30000 nM | Solubility ([5]; in Capryol 90, 25° C.): 150.92 mg/g | Solubility ([5]; in Fractionated Coconut oil, 25° C.): 16.55 mg/g | Solubility ([5]; in Glycerin, 25° C.): <0.1 mg/g | Solubility ([5]; in Kolliphor EL, 25° C.): 95.85 mg/g | Solubility ([5]; in Labrafil M 2125 CS, 25° C.): 35.32 mg/g | Solubility ([5]; in Labrasol ALF, 25° C.): 126.36 mg/g | Solubility ([5]; in LauroglycolTM FCC, 25° C.): 71.96 mg/g | Solubility ([5]; in Maisine CC, 25° C.): 60.17 mg/g | Solubility ([5]; in Masester E8120, 25° C.): 164.06 mg/g | Solubility ([5]; in Medium Chain Triglyceride, 25° C.): 16.49 mg/g | Solubility ([5]; in Oleic acid, 25° C.): 48.58 mg/g | Solubility ([5]; in Olive oil, 25° C.): 4.71 mg/g | Solubility ([5]; in PEG 400, 25° C.): 112.92 mg/g | Solubility ([5]; in Propylene glycol, 25° C.): 25.61 mg/g | Solubility ([5]; in Soybean oil, 25° C.): 6.72 mg/g | Solubility ([5]; in Span 20, 25° C.): 97.66 mg/g | Solubility ([5]; in Span 80, 25° C.): 54.04 mg/g | Solubility ([5]; in Triacetin, 25° C.): 58.75 mg/g | Solubility ([5]; in Tween 80, 25° C.): 88.26 mg/g | Solubility ([5]; in Vitamin E TPGS, table title 25° C., text: conducted at 40° C.): 82.98 mg/g
